Measurements taken from ChEMBL document CHEMBL5376006, “Discovery of a Hidden Pocket beneath the NES Groove by Novel Noncovalent CRM1 Inhibitors” (J Med Chem, 2023).
Activity calls are given as the source filed them. The rule behind the calls is not given here.

How the values were obtained:
[1] = tested on: MOLT-4; experiment: Antiproliferative activity against human MOLT-4 cells assessed as inhibition of cell growth incubated for 72 hrs by CellTiter Glo assay; type: functional, cell-based; conditions: MOLT-4, 72 h, pooled result: one value given for 6 cell lines, strains, targets or settings
[2] = molecular target: T1, Exportin-1 (Homo sapiens, UniProt O14980); experiment: Covalent inhibition of CRM1 (unknown origin) binding to GST-tagged NES PKI at 20 uM incubated for 2 hrs in presence of DTT by Coomassie brilliant blue staining based pull-down assay
[3] = Cytotoxicity against HEK293T cells assessed as inhibition of cell growth incubated for 72 hrs by SRB assay; type: toxicity, cell-based, HEK-293T; conditions: human
[4] = tested on: HeLa; experiment: Antiproliferative activity against human HeLa cells assessed as inhibition of cell growth incubated for 72 hrs by SRB assay; type: functional, cell-based
[5] = molecular target: T1, Exportin-1; experiment: Inhibition of CRM1 (unknown origin) binding to GST-tagged NES PKI assessed as CRM1/NES band ratio incubated for 1.5 hrs by Coomassie brilliant blue staining based pull-down assay (reference value: 1.00); set-up: concentration or dose not given beside the values
[6] = molecular target: T1, Exportin-1; experiment: Inhibition of CRM1 (unknown origin) binding to GST-tagged NES PKI at 100 uM incubated for 1.5 hrs by Coomassie brilliant blue staining based pull-down assay
[7] = molecular target: T1, Exportin-1; experiment: Binding affinity to CRM1 (unknown origin) assessed as inhibition of CRM1 binding to IAF-conjugated NES PKI by measuring dissociation constant in the presence of RanGTP by competitive MST analysis
[8] = molecular target: T1, Exportin-1; experiment: Inhibition of GFP-fused CRM1 cargo nuclear export in human HeLa cells at 200 uM incubated for 4 hrs by confocal microscopic analysis; type: cell-based
[9] = molecular target: T1, Exportin-1; experiment: Inhibition of CRM1 (unknown origin) binding to GST-tagged NES PKI at 100 uM incubated for 2 hrs in presence of DTT by Coomassie brilliant blue staining based pull-down assay
[10] = tested on: HuCCT-1; experiment: Antiproliferative activity against human HuCCT-1 cells assessed as inhibition of cell growth at 20 uM incubated for 72 hrs by SRB assay; type: functional, cell-based
[11] = tested on: PANC-1; experiment: Antiproliferative activity against human PANC-1 cells assessed as inhibition of cell growth at 20 uM incubated for 72 hrs by SRB assay; type: functional, cell-based
[12] = tested on: A549; experiment: Inhibition of colony formation in human A549 cells at 20 uM incubated for 48 hrs by crystal violet staining based analysis; type: functional, cell-based
[13] = molecular target: T1, Exportin-1; experiment: Binding affinity to CRM1 in human HeLa assessed as thermal stabilization at 20 uM incubated at 60 to 84 degreeC for 3 mins by CETSA based Western blot analysis; type: cell-based
[14] = molecular target: T1, Exportin-1; experiment: Inhibition of CRM1 cargo nuclear export in human MCF7 cells at 50 uM incubated for 4 hrs by confocal microscopic analysis; type: cell-based
[15] = tested on: MCF7; experiment: Antiproliferative activity against human MCF7 cells assessed as inhibition of cell growth at 20 uM incubated for 72 hrs by SRB assay; type: functional, cell-based
[16] = tested on: A549; experiment: Induction of apoptosis in human A549 cells assessed as caspase-3 cleavage at 50 uM incubated for 18 hrs by Western blot analysis; type: functional, cell-based
[17] = tested on: A549; experiment: Induction of apoptosis in human A549 cells at 50 uM incubated for 18 hrs by Annexin V-FITC/PI staining based flow cytometric analysis; type: functional, cell-based
[18] = molecular target: T1, Exportin-1; experiment: Inhibition of CRM1 cargo nuclear export in human A549 cells at 50 uM incubated for 4 hrs by confocal microscopic analysis; type: cell-based
[19] = tested on: Ishikawa; experiment: Antiproliferative activity against human Ishikawa cells assessed as inhibition of cell growth at 20 uM incubated for 72 hrs by SRB assay; type: functional, cell-based
[20] = Solubility of the compound in water; type: physicochemical
[21] = Toxicity in mouse at 100 mg/kg, ip administered for 2 weeks; type: organism-based; conditions: in vivo, 336 h
[22] = tested on: OVCAR-8; experiment: Antiproliferative activity against human OVCAR-8 cells assessed as inhibition of cell growth at 20 uM incubated for 72 hrs by SRB assay; type: functional, cell-based
[23] = tested on: A549; experiment: Inhibition of colony formation in human A549 cells at 40 uM incubated for 48 hrs by crystal violet staining based analysis relative to control; type: functional
[24] = tested on: HeLa; experiment: Antiproliferative activity against human HeLa cells assessed as inhibition of cell growth at 20 uM incubated for 72 hrs by SRB assay; type: functional, cell-based
[25] = tested on: A549; experiment: Induction of apoptosis in human A549 cells assessed as PARP-1 cleavage at 50 uM incubated for 18 hrs by Western blot analysis; type: functional, cell-based
[26] = tested on: A2780; experiment: Antiproliferative activity against human A2780 cells assessed as inhibition of cell growth at 20 uM incubated for 72 hrs by SRB assay; type: functional, cell-based
[27] = molecular target: T1, Exportin-1; experiment: Inhibition of CRM1 cargo nuclear export in digitonin-permeabilized human HeLa cells at 50 uM incubated for 4 hrs by confocal microscopic analysis; type: cell-based
[28] = tested on: A549; experiment: Antiproliferative activity against human A549 cells assessed as inhibition of cell growth at 20 uM incubated for 72 hrs by SRB assay; type: functional, cell-based
[29] = tested on: SW480; experiment: Antiproliferative activity against human SW480 cells assessed as inhibition of cell growth at 20 uM incubated for 72 hrs by SRB assay; type: functional, cell-based
[30] = tested on: Exportin-1 (Homo sapiens), O14980 [C528S]; experiment: Inhibition of human CRM1 C528S mutant nuclear export transfected in human MCF7 cells at 50 uM incubated for 4 hrs by confocal microscopic analysis; type: cell-based
[31] = tested on: A549; experiment: Induction of apoptosis in human A549 cells assessed as activation of phosphorylated JNK at 50 uM incubated for 18 hrs by Western blot analysis; type: functional, cell-based
[32] = tested on: MDA-MB-453; experiment: Antiproliferative activity against human MDA-MB-453 cells assessed as inhibition of cell growth at 20 uM incubated for 72 hrs by SRB assay; type: functional, cell-based
[33] = Toxicity in mouse assessed as body weight loss at 100 mg/kg, ip administered for 2 weeks; type: organism-based; conditions: in vivo, 336 h
[34] = tested on: HepG2; experiment: Antiproliferative activity against human HepG2 cells assessed as inhibition of cell growth at 20 uM incubated for 72 hrs by SRB assay; type: functional, cell-based
[35] = molecular target: T1, Exportin-1; experiment: Non-covalent inhibition of CRM1 (unknown origin) binding to GST-tagged NES PKI at 20 uM incubated for 2 hrs in presence of DTT by Coomassie brilliant blue staining based pull-down assay
[36] = tested on: SK-N-SH; experiment: Antiproliferative activity against human SK-N-SH cells assessed as inhibition of cell growth incubated for 72 hrs by CellTiter Glo assay; type: functional, cell-based
[37] = tested on: HCT-116; experiment: Antiproliferative activity against human HCT-116 cells assessed as inhibition of cell growth incubated for 1 hrs by CellTiter Glo assay; type: functional, cell-based; conditions: HCT-116, 1 h
[38] = tested on: SiHa; experiment: Antiproliferative activity against human SiHa cells assessed as inhibition of cell growth incubated for 1 hrs by CellTiter Glo assay; type: functional, cell-based
[39] = tested on: HCT-116; experiment: Antiproliferative activity against human HCT-116 cells assessed as inhibition of cell growth incubated for 72 hrs by CellTiter Glo assay; type: functional, cell-based; conditions: HCT-116, 72 h
[40] = tested on: SiHa; experiment: Antiproliferative activity against human SiHa cells assessed as inhibition of cell growth incubated for 72 hrs by CellTiter Glo assay; type: functional, cell-based
[41] = tested on: SK-N-SH; experiment: Antiproliferative activity against human SK-N-SH cells assessed as inhibition of cell growth incubated for 1 hrs by CellTiter Glo assay; type: functional, cell-based

T1 sequence (O14980 whole entry): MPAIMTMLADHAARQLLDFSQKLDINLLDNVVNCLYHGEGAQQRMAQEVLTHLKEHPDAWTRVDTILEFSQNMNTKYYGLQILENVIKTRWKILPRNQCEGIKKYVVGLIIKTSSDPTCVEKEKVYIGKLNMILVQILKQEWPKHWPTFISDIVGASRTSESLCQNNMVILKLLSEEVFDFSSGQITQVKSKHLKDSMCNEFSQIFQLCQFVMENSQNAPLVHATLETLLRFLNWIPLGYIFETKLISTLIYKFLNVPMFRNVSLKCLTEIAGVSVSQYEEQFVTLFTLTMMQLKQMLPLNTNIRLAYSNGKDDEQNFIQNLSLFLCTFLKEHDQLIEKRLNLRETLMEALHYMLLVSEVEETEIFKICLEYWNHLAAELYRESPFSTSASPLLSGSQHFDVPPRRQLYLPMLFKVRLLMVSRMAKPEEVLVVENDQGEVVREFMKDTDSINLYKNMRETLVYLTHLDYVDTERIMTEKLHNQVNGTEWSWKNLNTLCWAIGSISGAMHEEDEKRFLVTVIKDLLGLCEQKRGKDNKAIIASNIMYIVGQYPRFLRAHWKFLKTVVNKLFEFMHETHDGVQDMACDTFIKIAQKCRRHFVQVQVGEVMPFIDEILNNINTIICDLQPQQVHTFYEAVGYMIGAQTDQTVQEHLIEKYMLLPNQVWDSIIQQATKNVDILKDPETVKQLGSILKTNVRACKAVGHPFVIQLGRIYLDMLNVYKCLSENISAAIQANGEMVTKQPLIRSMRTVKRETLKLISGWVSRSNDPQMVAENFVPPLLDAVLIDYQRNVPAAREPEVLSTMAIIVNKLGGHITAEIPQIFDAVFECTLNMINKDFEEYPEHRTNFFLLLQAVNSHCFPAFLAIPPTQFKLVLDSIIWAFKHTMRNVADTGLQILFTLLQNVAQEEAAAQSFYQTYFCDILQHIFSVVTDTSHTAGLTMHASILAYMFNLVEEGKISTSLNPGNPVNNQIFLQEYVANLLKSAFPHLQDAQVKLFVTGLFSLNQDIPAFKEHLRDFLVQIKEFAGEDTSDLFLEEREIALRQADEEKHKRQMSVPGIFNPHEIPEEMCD
Sequence of Exportin-1 (Homo sapiens), O14980 [C528S] (O14980 whole entry C528S): as the sequence (O14980 whole entry) above, with C528S counted along it

SMILES	IC50 at 72 h [3] [nM]	IC50 [4] [nM]	Kd [7] [nM]	Activity [10]	Activity [11]	inhibition [12]	Activity [13]	inhibition [14]	Activity [15]	Activity [16]	Activity [17]	inhibition [18]	Activity [19]	solubility [20] [µg/mL]	Activity [22]	inhibition at 40 µM [23] [%]	Activity [24]	Activity [25]	Activity [26]	inhibition [27]	also measured
O=C(/C=C\n1cnc(-c2cc(C(F)(F)F)cc(C(F)(F)F)c2)n1)NNc1cnccn1 [SELINEXOR]	730	430																			IC50 [1]: 34 nM; inhibition [2]: inactive
Cc1ccc(C)c(N2CCN(c3ccc(C(=O)O)cc3NC(=O)c3ccc(Cl)cc3)CC2)c1			12000																		Ratio [5]: 0.02; inhibition [6]: Active; inhibition [8]: inactive; inhibition [9]: Active
O=C(O)c1ccc(N2CCN(c3cc(C(F)(F)F)ccc3C(F)(F)F)CC2)c(NC(=O)c2ccc(Cl)cc2)c1	39000	14600	3600	Active	Active	Active	Active	Active	Active	Active	Active	Active	Active	< 0.14	Active	100	Active	Active	Active	Active	Activity [21]: Non-Toxic; Activity [28]: Active; Activity [29]: Active; inhibition [30]: inactive; Activity [31]: Active; Activity [32]: Active; Activity [33]: Non-Toxic; Activity [34]: Active
O=C(O)c1ccc(N2CCN(c3cc(C(F)(F)F)cc(C(F)(F)F)c3)CC2)c(NC(=O)c2ccc(Br)cc2)c1	30900	10200	1600	Active	Active	Active	Active	Active	Active	Active	Active	Active	Active	< 0.14	Active	100	Active	Active	Active	Active	Activity [28]: Active; Activity [29]: Active; inhibition [30]: inactive; Activity [31]: Active; Activity [32]: Active; Activity [34]: Active
CC(C)CCNC/C=C/[S+]([O-])c1cc(C(F)(F)F)cc(C(F)(F)F)c1 (stereo unspecified)																					inhibition [35]: inactive
CCC(=C/[C@H](C)C/C=C/C(C)=C/[C@@H](C)C(=O)[C@@H](C)[C@H](O)[C@@H](C)C/C(C)=C/C(=O)O)/C=C/[C@@H]1OC(=O)C=C[C@@H]1C [LEPTOMYCIN B]																					IC50 [36]: 0.3 nM; IC50 [37]: 0.3 nM; IC50 [38]: 0.3 nM; IC50 [39]: 0.3 nM; IC50 [40]: 0.3 nM; IC50 [41]: 0.3 nM
O=C(O)c1ccc(N2CCN(c3cc(C(F)(F)F)ccc3C(F)(F)F)CC2)c(NC(=O)c2ccc(Br)cc2)c1	40400	15200	1800	Active	Active	Active	Active	Active	Active	Active	Active	Active	Active	< 0.14	Active	100	Active	Active	Active	Active	Activity [28]: Active; Activity [29]: Active; inhibition [30]: inactive; Activity [31]: Active; Activity [32]: Active; Activity [34]: Active
